In ChEMBL document CHEMBL1201862, “PubChem BioAssay data set” (2004):
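Grown in 96-well plates, cells were treated for 48 hours with each compound at five concentrations. Insufficient inhibition: endpoint recorded as highest concentration tested. The concentration for 50% growth inhibition is given as GI50.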 Activity calls are given as the source filed them. No stated cut-off is given here; in the data, active = GI50 up to about 1.1 µM and inactive = higher.

Columns and labels:
Assay in all cases: NCI tumour cell line growth inhibition, 48 h
SF-268 = tested on: SF-268
SNB-75 = tested on: SNB-75
M14 = tested on: M14
NCI/ADR-RES = tested on: NCI/ADR-RES
786-0 = tested on: 786-0
SK-MEL-28 = tested on: SK-MEL-28
NCI-H460 = tested on: NCI-H460
SK-MEL-5 = tested on: SK-MEL-5
CAKI-1 = tested on: CAKI-1
CCRF-CEM = tested on: CCRF-CEM
TK-10 = tested on: TK-10
RXF 393 = tested on: RXF 393
MDA-MB-231 = tested on: MDA-MB-231
U-251 = tested on: U-251
NCI-H226 = tested on: NCI-H226
COLO 205 = tested on: COLO 205
UACC-62 = tested on: UACC-62
HCC 2998 = tested on: HCC 2998
EKVX = tested on: EKVX
UO-31 = tested on: UO-31
SW-620 = tested on: SW-620
HCT-15 = tested on: HCT-15
NCI-H23 = tested on: NCI-H23
Malme-3M = tested on: Malme-3M
OVCAR-8 = tested on: OVCAR-8
MCF7 = tested on: MCF7
SK-OV-3 = tested on: SK-OV-3
MOLT-4 = tested on: MOLT-4
NCI-H522 = tested on: NCI-H522
MDA-N = tested on: MDA-N
Hs-578T = tested on: Hs-578T
HT-29 = tested on: HT-29
T47D = tested on: T47D
HOP-92 = tested on: HOP-92
HL-60 = tested on: HL-60
PC-3 = tested on: PC-3
A549 = tested on: A549
SNB-19 = tested on: SNB-19
OVCAR-4 = tested on: OVCAR-4
A498 = tested on: A498
DU-145 = tested on: DU-145
KM12 = tested on: KM12
UACC-257 = tested on: UACC-257
HOP-62 = tested on: HOP-62
HCT-116 = tested on: HCT-116
ACHN = tested on: ACHN
MDA-MB-435 = tested on: MDA-MB-435
SF-295 = tested on: SF-295
RPMI-8226 = tested on: RPMI-8226
OVCAR-3 = tested on: OVCAR-3
SN12C = tested on: SN12C
SK-MEL-2 = tested on: SK-MEL-2
IGROV-1 = tested on: IGROV-1
BT-549 = tested on: BT-549
OVCAR-5 = tested on: OVCAR-5
SF-539 = tested on: SF-539
LOX IMVI = tested on: LOX IMVI
SR = tested on: SR
K562 = tested on: K562

SMILES: CN(C)c1ccc(/C=C2\N=C(N/N=C/c3ccccc3)NC2=O)cc1
- GI50 (SF-268): 66.5 µM (inactive)
- GI50 (SNB-75): 81.1 µM (inactive)
- GI50 (M14): 89.7 µM (inactive)
- GI50 (NCI/ADR-RES): 29.1 µM (inactive)
- GI50 (786-0): 44.2 µM (inactive)
- GI50 (SK-MEL-28): > 100 µM (inactive)
- GI50 (NCI-H460): 49.9 µM (inactive)
- GI50 (SK-MEL-5): 41.1 µM (inactive)
- GI50 (CAKI-1): > 100 µM (inactive)
- GI50 (CCRF-CEM): 35.2 µM (inactive)
- GI50 (TK-10): > 100 µM (inactive)
- GI50 (RXF 393): 20.2 µM (inactive)
- GI50 (MDA-MB-231): > 100 µM (inactive)
- GI50 (U-251): 60.5 µM (inactive)
- GI50 (NCI-H226): > 100 µM (inactive)
- GI50 (COLO 205): 47.1 µM (inactive)
- GI50 (UACC-62): 79.8 µM (inactive)
- GI50 (HCC 2998): 42.1 µM (inactive)
- GI50 (EKVX): > 100 µM (inactive)
- GI50 (UO-31): > 100 µM (inactive)
- GI50 (SW-620): 67.9 µM (inactive)
- GI50 (HCT-15): 33.4 µM
- GI50 (NCI-H23): 50.6 µM (inactive)
- GI50 (Malme-3M): 69.5 µM (inactive)
- GI50 (OVCAR-8): 26.3 µM (inactive)
- GI50 (MCF7): 56.1 µM (inactive)
- GI50 (SK-OV-3): > 100 µM (inactive)
- GI50 (MOLT-4): 26.8 µM (inactive)
- GI50 (NCI-H522): 32.2 µM (inactive)
- GI50 (MDA-N): 33.4 µM (inactive)
- GI50 (Hs-578T): 43 µM (inactive)
- GI50 (HT-29): 40.6 µM (inactive)
- GI50 (T47D): 56.4 µM (inactive)
- GI50 (HOP-92): 26.4 µM (inactive)
- GI50 (HL-60): > 100 µM (inactive)
- GI50 (PC-3): 75.3 µM (inactive)
- GI50 (A549): 36.7 µM (inactive)
- GI50 (SNB-19): > 100 µM (inactive)
- GI50 (OVCAR-4): 60.1 µM (inactive)
- GI50 (A498): > 100 µM (inactive)
- GI50 (DU-145): 58.7 µM (inactive)
- GI50 (KM12): 52.6 µM (inactive)
- GI50 (UACC-257): > 100 µM (inactive)
- GI50 (HOP-62): > 100 µM (inactive)
- GI50 (HCT-116): 83.6 µM (inactive)
- GI50 (ACHN): > 100 µM (inactive)
- GI50 (MDA-MB-435): 33 µM (inactive)
- GI50 (SF-295): 69.5 µM (inactive)
- GI50 (RPMI-8226): 28.8 µM (inactive)
- GI50 (OVCAR-3): > 100 µM (inactive)
- GI50 (SN12C): > 100 µM (inactive)
- GI50 (SK-MEL-2): > 100 µM (inactive)
- GI50 (IGROV-1): 44.9 µM (inactive)
- GI50 (BT-549): > 100 µM (inactive)
- GI50 (OVCAR-5): > 100 µM (inactive)

SMILES: CC1(C)C2CC(O)C1(C)CC2=O (stereo not given)
- GI50 (SF-268): > 100 µM (inactive)
- GI50 (SNB-75): > 100 µM (inactive)
- GI50 (M14): > 100 µM (inactive)
- GI50 (NCI/ADR-RES): > 100 µM (inactive)
- GI50 (786-0): > 100 µM (inactive)
- GI50 (SK-MEL-28): 3.21 µM (inactive)
- GI50 (NCI-H460): > 100 µM (inactive)
- GI50 (SK-MEL-5): > 100 µM (inactive)
- GI50 (CCRF-CEM): > 100 µM (inactive)
- GI50 (TK-10): > 100 µM (inactive)
- GI50 (RXF 393): > 100 µM (inactive)
- GI50 (MDA-MB-231): > 100 µM (inactive)
- GI50 (U-251): > 100 µM (inactive)
- GI50 (NCI-H226): > 100 µM (inactive)
- GI50 (COLO 205): > 100 µM (inactive)
- GI50 (UACC-62): > 100 µM (inactive)
- GI50 (HCC 2998): > 100 µM (inactive)
- GI50 (UO-31): > 100 µM (inactive)
- GI50 (SW-620): > 100 µM (inactive)
- GI50 (HCT-15): > 100 µM
- GI50 (NCI-H23): > 100 µM (inactive)
- GI50 (Malme-3M): > 100 µM (inactive)
- GI50 (OVCAR-8): > 100 µM (inactive)
- GI50 (MCF7): > 100 µM (inactive)
- GI50 (SK-OV-3): > 100 µM (inactive)
- GI50 (MOLT-4): > 100 µM (inactive)
- GI50 (NCI-H522): > 100 µM (inactive)
- GI50 (MDA-N): > 100 µM (inactive)
- GI50 (Hs-578T): > 100 µM (inactive)
- GI50 (HT-29): > 100 µM (inactive)
- GI50 (T47D): > 100 µM (inactive)
- GI50 (HOP-92): > 100 µM (inactive)
- GI50 (SF-539): > 100 µM (inactive)
- GI50 (HL-60): > 100 µM (inactive)
- GI50 (LOX IMVI): > 100 µM (inactive)
- GI50 (PC-3): > 100 µM (inactive)
- GI50 (A549): > 100 µM (inactive)
- GI50 (SNB-19): > 100 µM (inactive)
- GI50 (SR): > 100 µM (inactive)
- GI50 (OVCAR-4): > 100 µM (inactive)
- GI50 (DU-145): > 100 µM (inactive)
- GI50 (KM12): > 100 µM (inactive)
- GI50 (UACC-257): > 100 µM (inactive)
- GI50 (HOP-62): > 100 µM (inactive)
- GI50 (HCT-116): > 100 µM (inactive)
- GI50 (ACHN): > 100 µM (inactive)
- GI50 (MDA-MB-435): > 100 µM (inactive)
- GI50 (SF-295): > 100 µM (inactive)
- GI50 (RPMI-8226): > 100 µM (inactive)
- GI50 (OVCAR-3): > 100 µM (inactive)
- GI50 (SN12C): > 100 µM (inactive)
- GI50 (K562): > 100 µM (inactive)
- GI50 (IGROV-1): > 100 µM (inactive)
- GI50 (BT-549): > 100 µM (inactive)
- GI50 (OVCAR-5): > 100 µM (inactive)
